Two compounds from patent publication US4116963A, “3,3,3-Triarylalkyl-4-phenylalkyl-4-hydroxy piperidines and related compounds” (G.D. Searle & Co., priority 1977, dated 1978) can be followed below.

For assay [1], the system named is mice. Nature of the assay: CECAL (Charcoal Meal Test). The assay is classed as in vivo. The conditions noted are these: Mus musculus, po; i.g., 1 hour prior to the charcoal meal; antidiarrheal effect; read-out: Cecal Test (CT) ED50. How it is done:
The antidiarrheal effect of the compounds of the present invention are shown by the following test:
CECAL (Charcoal Meal Test)
Mice weighing 18-24 grams and previously fasted for 24 hours are each given orally 0.2 ml of a suspension containing 10% charcoal and 1% methylcellulose. The test compounds are administered intragastrically 1 hour prior to the charcoal meal. 3.5 Hours after administration of the meal the mice are sacrificed by cervical dislocation and the cecum is examined for the presence or absence of charcoal on an all or none basis. Each compound is tested at three dose levels (typically 30, 10, 3 mg/kg) in groups of 6 mice per dose level. Control groups of mice given vehicle only were run concurrently with each test group.

The subject of assay [2] is mice. The experiment in a line: Mouse Hot Plate Test. The assay is classed as in vivo. Conditions: for ED50: Mus musculus, printed "mg/kg k.g.", hot plate 55± 0.3° C., analgesic effect, read-out: Hot Plate (HP) ED50; for Relative Constipation Specificity HP/CT: ratio of Hot Plate ED50 to Cecal Test ED50. On the procedure:
The assessment of the analgesic effect of the instant compounds was conducted in the mouse hot plate and tail clip tests.
A mouse (adult male weighing 18-25 grams) is placed in a restraining cylinder on a hot plate with the temperature controlled at 55± 0.3° C. The reaction time of the mouse to lick a foot or jump is measured at 60, 40 and 20 minutes before and 30, 60, 90, and 120 minutes after administration of the test compound. The "normal" reaction time is measured as the median of the three pretreatment reaction times. A positive response consists of a reaction time greater than twice the normal time at any of the post treatment times. A dose of the test compound is considered active when 50 percent or more of the animals used show a positive response.

Assay [3] has as its system mice. Nature of the assay: Tail Clip Test. The assay is classed as in vivo, mouse. Conditions: for ED50: Mus musculus, po, i.g., analgesic effect, read-out: Tail Clip (TC) ED50; for Relative Constipation Specificity TC/CT: ratio of Tail Clip ED50 to Cecal Test ED50.

Usually ED50 stands for the dose at which the effect has come halfway, by size or by number of responders.

With `OC1(c2ccccc2)CCN(CCC(c2ccccc2)(c2ccccc2)c2ccccc2)CC1` [I, 1-(3,3,3-triphenylpropyl)-4-hydroxy-4-phenylpiperidine], the 50% effective dose (ED50) with mice [1] came out at 0.39 mg/kg. For the same compound, in the assay on mice [2], the ED50 was around 3 mg/kg and the “Relative Constipation Specificity HP/CT” value came to 7.6. Further, in the assay with mice [3], the median effective dose (ED50) was around 3 mg/kg and the “Relative Constipation Specificity TC/CT” value stood at 7.6.
For `OC1(Cc2ccccc2)CCN(CCC(c2ccccc2)(c2ccccc2)c2ccccc2)CC1` [II, 1-(3,3,3-triphenylpropyl)-4-hydroxy-4-benzylpiperidine], the ED50 with mice [1] was found to be 0.6 mg/kg. For the same compound, in the assay on mice [2], the ED50 was around 400 mg/kg and the “Relative Constipation Specificity HP/CT” value was found to be 667. Also, in the assay with mice [3], the median effective dose (ED50) is around 400 mg/kg and the “Relative Constipation Specificity TC/CT” value was determined as 667.
